# According to PubChem BioAssay AID2842 (Southern Research Institute, 2010):
# Test system: M. tuberculosis H37Rv growth inhibition
# Assay: Mycobacterium tuberculosis H37Rv growth inhibition, putative kinase inhibitor library, confirmatory dose response (AID 2842);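 note: bacteria incubated one week before Alamar blue readout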
row,SMILES,IC90
1,Cc1ccc2c(c1)C(c1ccccc1)N(C(=O)c1ccc(-c3ccccc3)cc1)CC(=O)N2 (centres undefined),5.05 µg/mL
2,O=[n+]1c2ccccc2n([O-])c2ccccc21,3.52 µg/mL
3,O=C(Nc1nnc(-c2cc(Cl)ccc2Cl)o1)c1ccc(Cl)s1,1.86 µg/mL
4,CN1CCc2c(sc(NC(=O)c3ccc([N+](=O)[O-])o3)c2C(N)=O)C1,10.5 µg/mL
5,Cc1ccc(C)c(-c2nnc(NC(=O)c3cc(Cl)sc3Cl)o2)c1,2.16 µg/mL
6,N#Cc1ccc(C(=O)Nc2nnc(-c3ccc4c(c3)CCCC4)o2)cc1,1.71 µg/mL
7,CCOC(=O)c1ccc2nc(Nc3nc4cc5c(cc4s3)OCO5)sc2c1,34.8 µg/mL
8,Cc1ccc(C)c(-c2nnc(NC(=O)c3cc(Cl)ccc3[N+](=O)[O-])o2)c1,0.68 µg/mL
9,N#Cc1ccc(C(=O)Nc2nnc(-c3ccc(Cl)cc3)o2)cc1,56.7 µg/mL
10,OCCN1CCN(c2nc(Nc3cccc(Cl)c3)c3cnn(-c4ccccc4)c3n2)CC1,0.73 µg/mL
11,COc1cccc(C(=O)N(CCCn2ccnc2)c2nc3ccc(F)cc3s2)c1OC,6.75 µg/mL
12,O=C(Nc1nnc(-c2ccc(Cl)cc2)o1)c1ccc([N+](=O)[O-])o1,0.26 µg/mL
13,CCCCC(=O)Nc1nnc(-c2cc(Cl)ccc2Cl)o1,32.4 µg/mL
14,O=C(Nc1nnc(-c2ccc(Br)cc2)o1)c1cc(Cl)sc1Cl,3.43 µg/mL
15,CC(C)(C)c1ccc(C(=O)N2CC(=O)Nc3ccc(Cl)cc3C2c2ccc(F)cc2)cc1 (centres undefined),9.95 µg/mL
16,O=C(Nc1nnc(-c2ccc3c(c2)OCCO3)o1)c1ccccc1Oc1ccccc1,3.77 µg/mL
17,Cc1ccc(C)c(-c2nnc(NC(=O)/C=C/c3cccs3)o2)c1,54.5 µg/mL
18,COc1ccccc1-c1nnc(NC(=O)Cc2ccc(SC)cc2)o1,52.6 µg/mL
19,CCOc1ccc2nc(Nc3nc4c(OC)cccc4s3)sc2c1,3.75 µg/mL
20,Cc1ccc(C)c(-c2nnc(NC(=O)c3ccccc3S(C)(=O)=O)o2)c1,19.3 µg/mL
21,Cc1ccc2sc(NNC(=O)c3nc4ccccc4s3)nc2c1C,3.31 µg/mL
22,COc1ccc(C2CC(c3c(-c4ccccc4)c4cc(Br)ccc4[nH]c3=O)=NN2C(=O)c2ccccc2)cc1 (centres undefined),1.07 µg/mL
23,COc1cc(/C=C(\C#N)c2nc(-c3ccc4c(c3)OCO4)cs2)cc([N+](=O)[O-])c1O,37.7 µg/mL
24,O=C(Nc1nnc(-c2ccc(Cl)cc2)o1)c1ccccc1F,0.72 µg/mL
25,Cc1ccc(C2C=C(c3ccc(Cl)cc3)Nc3ncnn32)cc1 (centres undefined),6.94 µg/mL
26,COc1ccc(C)c2sc(N3CCc4ccccc4C3)nc12,11.1 µg/mL
27,O=C(NC1NC(c2ccccc2)=CS1)c1ccc([N+](=O)[O-])s1 (centres undefined),3.42 µg/mL

row,SMILES,IC90
1,O=C(Nc1nnc(-c2ccc(Br)cc2)o1)c1ccc(Cl)s1,1.87 µg/mL
2,O=C(/C=C/c1cccs1)Nc1nnc(-c2ccc3c(c2)OCCO3)o1,37 µg/mL
3,O=C(c1ccco1)N(CCCn1ccnc1)c1nc2ccc(Br)cc2s1,0.74 µg/mL
4,CCCCc1ccc(NCCn2c(C)c(C)n3c4c(=O)[nH]c(=O)n(C)c4nc23)cc1,12.6 µg/mL
5,Cc1ccc(C2=NC(C)(C)N=C2SCC(=O)Nc2ccc(C)c(C)c2)cc1,23.5 µg/mL
6,CCOc1cccc2sc(N3CCc4ccccc4C3)nc12,15.3 µg/mL
7,COc1cccc2sc(Nc3nc4ccc(Cl)cc4s3)nc12,13.9 µg/mL
8,O=C(OCc1ccco1)c1cc2ccccc2oc1=O,20.4 µg/mL
9,CC(=O)c1ccc(C(=O)Nc2nnc(-c3cc(Cl)ccc3Cl)o2)cc1,94.4 µg/mL
10,COc1ccc(C(=O)NNc2nc3cc(C)cc(C)c3s2)cc1,38.8 µg/mL
11,Cc1ccc(-c2nnc(NC(=O)c3cc([N+](=O)[O-])ccc3Cl)o2)c(C)c1,1.57 µg/mL
12,O=C(Nc1nnc(-c2ccccc2)o1)c1cc(-c2cccs2)nc2ccccc12,0.72 µg/mL
13,CCOc1ccc2nc(N3CCCC3)sc2c1,17.2 µg/mL
14,O=C(CCCN1C(=O)/C(=C\c2ccco2)SC1=S)Nc1ccccn1,4.87 µg/mL
15,O=C(Nc1nc(-c2ccc3c(c2)OCCO3)cs1)c1cccc(C(F)(F)F)c1,13.9 µg/mL
16,Cc1ccc(C(=O)Nc2nnc(-c3ccncc3)o2)cc1C,26.8 µg/mL
17,COc1ccc2nc(Nc3nc4c(s3)C(=O)CC(C)(C)C4)sc2c1,15.7 µg/mL
18,COc1cccc(NC(=O)C2C(=O)CN(c3ccccc3)C2=O)c1 (centres undefined),4.41 µg/mL
19,O=C(Nc1nnc(-c2cc(Cl)ccc2Cl)o1)c1ccccc1F,0.43 µg/mL
20,CC(O)CNc1ncnc2c1cnn2-c1ccc(Cl)c(Cl)c1 (centres undefined),12.5 µg/mL
21,Cc1ccc(-c2nnc(NC(=O)c3cc4ccccc4oc3=O)o2)c(C)c1,1.36 µg/mL
22,O=C(Nc1nnc(-c2ccc3c(c2)CCCC3)o1)c1ccc([N+](=O)[O-])s1,0.68 µg/mL
23,COc1ccc(-c2nnc(NC(=O)c3ccc(Cl)cc3Cl)o2)cc1,14.1 µg/mL
24,O=C(CSc1nc(-c2cccc(F)c2)[nH]c1-c1ccccc1)Nc1ccc2c(c1)OCO2,5.1 µg/mL
25,COc1cccc(C(=O)Nc2nnc(C3=COCCO3)o2)c1,4.85 µg/mL
26,O=C(Nc1nnc(-c2cccs2)o1)c1cc(-c2ccccc2)nc2ccccc12,0.53 µg/mL
27,Cc1ccc2sc(NNC(=O)c3cccs3)nc2c1C,23.2 µg/mL
